Like-named read-outs stand apart in the source and are kept apart here.
Key:
[1] = system: orientation hypermotility; test: Sedative action: reduction of orientation hypermotility induced by a new environment; assay type: in vivo, female NMRI mice; conditions: for ED50: po, 0.5 h, read-out: Sedative action (mouse) ED50
Description: The test substances were administered orally to groups comprising three female NMRI mice each. The orientation hypermotility induced by a new environment is determined photoelectrically, 30 minutes after administration of the substance, over a period of 30 minutes.
The ED50, ie. the dose which produces 50% reduction in orientation hypermotility compared to untreated control animals, was determined.

[2] = system: reserpine-induced hypothermia; test: Antidepressant action: inhibition of reserpine-induced hypothermia; assay type: in vivo, male mice (Swiss); conditions: for ED50: po, read-out: Antidepressant action (mouse) ED50
Description: Antidepressants produce a dose-dependent inhibition of this hypothermia. The test substances were administered orally 60 minutes before reserpine.

[3] = mouse, administered orally, 30 min after administration, over 30 min, 50% reduction in orientation hypermotility
[4] = mouse, administered orally 60 minutes before reserpine (2.15 mg/kg s.c.), 50% inhibition of hypothermia

| Compound | ED50 [1, 3] | ED50 [2, 4] | ED50 ([1]; Mus musculus) | ED50 ([2]; Mus musculus) | weak suppressant effect on the central nervous system (in words) ([1]; known, and also found in the test for sedative action) | antidepressant action (in words) ([2]; up to the maximum test dose of 2,150 mg/kg, administered orally) |
| --- | --- | --- | --- | --- | --- | --- |
| CC(=CC#N)CN1C(=O)c2ccccc2S1(=O)=O [Example 1, 3-(2,3-dihydro-1,1-dioxido-3-oxo-1,2-benzisothiazol-2-yl)-1-cyano-2-methylprop-1-ene] | 50 mg/kg | 3.5 mg/kg | – | – | – | – |
| CC(=CC#N)CN1C(=O)c2c(Cl)cccc2S1(=O)=O [Example 4, 3-(2,3-Dihydro-4-chloro-1,1-dioxido-3-oxo-1,2-benzisothiazol-2-yl)-1-cyano-2-methylprop-1-ene] | 52 mg/kg | 3.1 mg/kg | – | – | – | – |
| CC(=CC#N)CN1C(=O)c2cc(Cl)ccc2S1(=O)=O [Example 6, 3-(2,3-Dihydro-5-chloro-1,1-dioxido-3-oxo-1,2-benzisothiazol-2-yl)-1-cyano-2-methylprop-1-ene] | 100 mg/kg | 1.1 mg/kg | – | – | – | – |
| CC(=CC#N)CN1C(=O)c2ccccc2C1=O [Example 11, 3-(Phthalimid-2-yl)-1-cyano-2-methylprop-1-ene] | 68 mg/kg | 18.9 mg/kg | – | – | – | – |
| CC(=CC#N)CN1Cc2ccccc2C1=O [Example 12, 3-(Phthalimidin-2-yl)-1-cyano-2-methylprop-1-ene] | 49 mg/kg | 11.4 mg/kg | – | – | – | – |
| CC(=CC#N)CCN1C(=O)c2ccccc2C1=O [Example 18, 4-(Phthalimid-2-yl)-1-cyano-2-methylbut-1-ene] | 29 mg/kg | 4.5 mg/kg | – | – | – | – |
| CN(C)CCCN1c2ccccc2CCc2ccccc21 [Imipramine, reference compound] | – | – | ~100 mg/kg | 6.8 mg/kg | – | – |
| O=C1NCCCC1N1C(=O)c2ccccc2S1(=O)=O (stereo not drawn) [Supidimide, 3-(2,3-dihydro-1,1-dioxido-3-oxo-1,2-benzisothiazol-2-yl)-2-oxopiperidine, reference compound] | 277 mg/kg | 2150 mg/kg | – | – | weak suppressant effect on the central nervous system | completely absent |
